Assay results: ChEMBL document CHEMBL1137119, “Design and synthesis of 3-(2-pyridyl)pyrazolo[1,5-a]pyrimidines as potent CRF1 receptor antagonists” (Bioorg Med Chem Lett, 2004)
pIC50, pKi: −log10 of the molar value.

Biological target: T1, Corticotropin-releasing factor receptor 1 (Homo sapiens, UniProt P34998)
T1 sequence (P34998 whole entry): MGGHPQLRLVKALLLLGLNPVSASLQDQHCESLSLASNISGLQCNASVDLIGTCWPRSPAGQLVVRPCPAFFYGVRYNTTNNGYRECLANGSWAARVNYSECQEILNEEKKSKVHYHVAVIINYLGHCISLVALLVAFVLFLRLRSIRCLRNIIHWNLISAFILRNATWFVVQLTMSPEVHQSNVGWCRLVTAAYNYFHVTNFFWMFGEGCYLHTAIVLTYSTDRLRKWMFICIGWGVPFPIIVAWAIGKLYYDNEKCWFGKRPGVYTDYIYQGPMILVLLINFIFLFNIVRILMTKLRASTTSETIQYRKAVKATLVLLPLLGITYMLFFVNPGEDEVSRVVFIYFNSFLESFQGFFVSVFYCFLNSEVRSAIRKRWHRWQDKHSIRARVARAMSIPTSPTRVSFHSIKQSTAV
Assay: Inhibition of CRF-stimulated cAMP production in cells expressing CRF1 receptor

Row | SMILES | pIC50
1 | CCCN(CCC)c1cc(C)nc2c(-c3ncc(N(C)C)cc3C)c(C)nn12 | 6.82
2 | CCCN(CCC)c1cc(C)nc2c(-c3ncc([N+](=O)[O-])cc3C)c(C)nn12 | 6.74
3 | CCCN(CCC)c1cc(C)nc2c(-c3ncc(Cl)cc3Cl)c(C)nn12 | 7.31

Biological target: T1, Corticotropin-releasing factor receptor 1
Assay: Binding affinity for recombinant human CRF1 receptor

Row | SMILES | pKi
4 | CCCN(CC1CC1)c1cc(C)nc2c(-c3ncc(C(F)(F)F)cc3Cl)c(C)nn12 | 9.10
5 | CCCN(CCC)c1cc(C)nc2c(-c3ncc(O)cc3C)c(C)nn12 | 6.28
6 | CCCN(CCC)c1cc(C)nc2c(-c3ncc(NC)cc3C)c(C)nn12 | 7.40
7 | CCCN(CCC)c1cc(C)nc2c(-c3ncccc3C)c(C)nn12 | 6.96
8 | CCCN(CCC)c1cc(C)nc2c(-c3ncc(N(CC)CC)cc3C)c(C)nn12 | 7.89
9 | CCCCN(CCCC)c1cc(C)nc2c(-c3ncc(C(F)(F)F)cc3Cl)c(C)nn12 | 8.96
10 | CCCN(CCOC)c1cc(C)nc2c(-c3ncc(Cl)cc3Cl)c(C)nn12 | 8.49
11 | CCCN(CCC)c1cc(C)nc2c(-c3ncc(C)cc3N=O)c(C)nn12 | < 5.00
12 | CCCN(CCC)c1cc(C)nc2c(-c3ncc(Cl)cc3C)c(C)nn12 | 8.17
13 | CCCN(CCC)c1cc(C)nc2c(-c3ncc(N(C)C)cc3C)c(C)nn12 | 8.00
14 | CCCN(CCC)c1cc(C)nc2c(-c3ncc(C)cc3O)c(C)nn12 | < 5.00
15 | CCCN(CCC)c1cc(C)nc2c(-c3ncc(C)cc3N(C)C)c(C)nn12 | 7.64
16 | CCCN(CCC)c1cc(C)nc2c(-c3ncc(C)cc3NC)c(C)nn12 | 7.89
17 | CCCN(CCC)c1cc(C)nc2c(-c3ncc(C)cc3OC)c(C)nn12 | 7.60
18 | CCCN(CC1CC1)c1cc(C)nc2c(-c3ncc(Cl)cc3Cl)c(C)nn12 | 8.41
19 | COCCN(CCOC)c1cc(C)nc2c(-c3ncc(Cl)cc3Cl)c(C)nn12 | 7.11

Row | SMILES | pKi
20 | CCCN(CCC)c1cc(C)nc2c(-c3ncc(C(F)(F)F)cc3Cl)c(C)nn12 | 8.92
21 | CCCN(CCC)c1cc(C)nc2c(-c3ncc(C)cc3N)c(C)nn12 | 7.40
22 | CCCN(CCC)c1cc(C)nc2c(-c3ncc(C)cc3[N+](=O)[O-])c(C)nn12 | 7.85
23 | CCCN(CCC)c1cc(C)nc2c(-c3ncc(F)cc3C)c(C)nn12 | 7.72
24 | CCCN(CCC)c1cc(C)nc2c(-c3ncc(C)cc3Cl)c(C)nn12 | 8.21
25 | CCCCN(CCC)c1cc(C)nc2c(-c3ncc(C(F)(F)F)cc3Cl)c(C)nn12 | 8.92
26 | CCCN(CCC)c1cc(C)nc2c(-c3ncc([N+](=O)[O-])cc3C)c(C)nn12 | 8.04
27 | CCCN(CCC)c1cc(C)nc2c(-c3ccc(Cl)cn3)c(C)nn12 | 7.06
28 | CCCN(CCC)c1cc(C)nc2c(-c3ncc(I)cc3C)c(C)nn12 | 8.18
29 | CCCN(CCC)c1cc(C)nc2c(-c3ncc(OC)cc3C)c(C)nn12 | 8.00
30 | CCCN(CCC)c1cc(C)nc2c(-c3ncc(N4CCCCC4)cc3C)c(C)nn12 | 7.77
31 | CCCN(CCC)c1cc(C)nc2c(-c3ncc(Cl)cc3Cl)c(C)nn12 | 8.49
32 | CCCN(CCC)c1cc(C)nc2c(-c3ncc(N)cc3C)c(C)nn12 | 7.07
33 | CCCN(Cc1ccccc1)c1cc(C)nc2c(-c3ncc(C(F)(F)F)cc3Cl)c(C)nn12 | 8.77
34 | CCCN(CCC)c1cc(C)nc2c(-c3ncc(N=O)cc3C)c(C)nn12 | 7.00
